Measurements taken from patent publication US20230149358A1, “COMBINATION CANCER THERAPY WITH PENTAAZA MACROCYCLIC RING COMPLEX AND HORMONE THERAPY AGENT” (Galera Labs, LLC, priority 2020, published 2023).

Assays:
MCF7-MnSOD^K68Q cells = experiment: Clonogenic cell survival, MCF7-MnSOD^K68Q cells; format: cell-based, human
Protocol: FIGS. 25a-25b show clonogenic cell survival studies in MCF7-MnSOD^K68Q cells exposed to either: Fulv at 100 nM (in FIG. 25a); or Palb at 0.5 μM (in FIG. 25b) using standard methods. […] Error bars are ±1 SEM. Experiments in triplicate. *** p<0.001.
Clonogenic cell survival assay. For the clonogenic survival analysis, exponentially growing cells were replated using appropriate dilutions, and clonogenic survival was evaluated after 14 days in regular growth medium. Cells were stained with crystal violet, and colonies of >50 cells were counted and utilized to calculate clonogenic survival^46.
To evaluate clonogenic cell survival by testing cell growth at low density, 500 exponentially growing cells were plated in triplicate in 6-well plates using serial dilution, and the growth of the cells was examined throughout 14 days in regular growth medium. Cells were fixed with 70% ethanol for 5 minutes and then stained with 0.5% crystal violet (in 25% methanol) for 20 minutes. Photos of stained plates were taken, and colonies of more than 50 cells were counted and used to calculate clonogenic survival.

T47D-MnSOD^K68Q cells = experiment: Clonogenic cell survival, T47D cells expressing MnSOD^K68Q; format: cell-based, human; conditions: 1 μM hydroxy-Tam
Protocol: FIGS. 14a-14g are images and plots that illustrate that loss of SIRT3-induced MnSOD-K68 deacetylation leads to hydroxy-Tam resistance in human breast cancer cells. With respect to FIG. 14a, T47D-MnSOD^WT, T47D-MnSOD^K68R, and T47D-MnSOD^K68D permanent cell lines were selected for hydroxy-Tam resistance in 1 μM for 3 months, and clonogenic cell survival experiments were completed. With respect to FIG. 14b, T47D-shCtrl and T47D-shSIRT3 permanent cell lines were exposed to 1 μM 4-hydroxy-Tam For 24 h (HT), and clonogenic cell survival experiments were done. With respect to FIG. 14c, T47D and T47D-HTR cells, with and without exposure to 1 μM 4-hydroxy-Tam for 24 h (HT), were measured for cytotoxicity by clonogenic survival experiments. […] The cell lysates were analyzed by immunoblotting with anti-MnSOD-K122-Ac (validated as a SIRT3 deacetylation target in Tao et al., 2010, Cancer Cell), anti-MnSOD, anti-OSCP-K139-Ac (validated as a SIRT3 deacetylation target in Tao et al., 2010, Cancer Cell), anti-OSCP, anti-IDH2K413-Ac (validated as a SIRT3 deacetylation target in Someya et al., 2010, Cancer Cell), anti-IDH2, and anti-actin. […]
Clonogenic cell survival assay. For the clonogenic survival analysis, exponentially growing cells were replated using appropriate dilutions, and clonogenic survival was evaluated after 14 days in regular growth medium. […]

[1] = tested on: MCF7 cells overexpressing MnSOD^K68Q; experiment: MTT assay, MCF7 cells overexpressing MnSOD^K68Q; format: cell-based, human; conditions: 48 hours
Protocol: In FIGS. 28a-28b, cell lysates of 250 nM, 500 nM, 1 μM cisplatin-resistant and […], 1 nM and 2 nM doxorubicin-resistant MCF7 cells (cultured in drug-containing media for 3 months) were collected and immunoblotted for MnSOD-K68-Ac, MnSOD, actin and tubulin. In FIG. […] After 48 hours, MTT assay is conducted to determine the cell viability after chemotherapy drug treatment.
Cell proliferation was measured using MTT proliferation assay kit (ab211091). 10,000 exponentially growing cells were plated in regular growth medium per well into 96-well plates in triplicate. Cells were treated with specified drugs after overnight and incubated for 48 hours. The treatment media was then discarded and a mixture of 50 μl MTT reagent and 50 μl serum-free media was added into each well and incubated for 3 hours at 37° C. 150 μl of MTT solvent was then added, and the plate was shaken for 15 minutes avoiding light. The absorbance was read at OD=590 nm and used to evaluate cell proliferation.

[2] = tested on: LNCaP-MnSOD^K68Q xenografts; experiment: LNCaP-MnSOD^K68Q hindlimb xenograft growth in nude mice; format: in vivo; conditions: male nude mice; GC4419 10 mg/kg once per week, ENZ 25 mg/kg/day; 46 days
Protocol: In FIG. 21(a), clonogenic cell survival experiments were performed in LNCaP-ENZR (left two bars) and LNCaP-MnSOD^K68Q (right two bars) treated with ENZ, with or without GC4419 (20 μM) for 5 days. […] Tumor volumes were measured three times a week for 46 days. For each group n=10. Error bars ±1 SEM. All experiments done in triplicate. **p<0.01.
Thus, it was surmised that restoring SOD activity, using the pentaaza macrocyclic ring complex GC4419, an agent that chemically detoxifies superoxide, would reverse/convert the ENZR to a sensitive phenotype. […] The dose and pharmacokinetics for GC4419 is based on data for murine models^92-93.

colon of rats = conditions: experimental model of colitis; cited from earlier work
hamster = conditions: acute radiation-induced oral mucositis; cited from earlier work
adult mice = conditions: lethal total body irradiation of adult mice; cited from earlier work
rat [3] = conditions: rat model of inflammation; cited from earlier work
rat [4] = conditions: rat model of collagen-induced arthritis; cited from earlier work

With 4-hydroxytamoxifen [hydroxy-Tam] the “cytotoxicity (clonogenic survival), versus cells expressing MnSOD WT or K68R” value (MCF7-MnSOD^K68Q cells; MCF7 cells expressing MnSOD^K68Q, 1 μM hydroxy-Tam for 5 days) was “exhibited significant resistance to the cytotoxicity” and the “cytotoxicity (clonogenic survival), versus cells expressing MnSOD WT or K68R” value (T47D-MnSOD^K68Q cells) was “exhibited significant resistance to the cytotoxicity”.
In the case of `COc1cccc2c1C(=O)c1c(O)c3c(c(O)c1C2=O)C[C@@](O)(C(=O)CO)C[C@@H]3O[C@H]1C[C@H](N)[C@H](O)[C@H](C)O1` [DXR, doxorubicin], the “cell viability (MTT), resistance” value ([1]; DXR 2 nM) is reported as “exhibited higher resistance”.
For `CNC(=O)c1ccc(N2C(=S)N(c3ccc(C#N)c(C(F)(F)F)c3)C(=O)C2(C)C)cc1F` [ENZ, enzalutamide, reference compound], the “xenograft growth (tumor volume)” value [2] was “exhibited similar growth characteristics as the control LNCaP cells”.
In the case of `[NH2][Pt]([NH2])([Cl])[Cl]` [CDDP, cisplatin], the “cell viability (MTT), resistance” value ([1]; CDDP 1 μM) is reported as “exhibited higher resistance”.
For `[Cl-].[Cl-].[Mn+2].c1cc2nc(c1)CN[C@@H]1CCCC[C@H]1NCCN[C@@H]1CCCC[C@H]1NC2` [GC4403], the “injury to the colon” value (colon of rats) is listed as “very significantly reduce the injury to the colon”, the radiation damage (hamster) is listed as “attenuate the radiation damage” and the radiation damage (adult mice) is listed as “attenuate the radiation damage”. The inflammation (rat [3]) was “inhibit inflammation” and the joint disease (rat [4]) was “prevent joint disease”.
With `C[C@]12CC[C@@H]3c4ccc(O)cc4C[C@@H](CCCCCCCCC[S+]([O-])CCCC(F)(F)C(F)(F)F)[C@H]3[C@@H]1CC[C@@H]2O` (some centres unmarked) [Fulv, Fulvestrant] the “clonogenic cell survival, resistance versus MCF7-MnSOD^WT” value (MCF7-MnSOD^K68Q cells; Fulv at 100 nM) was “exhibited resistance”.
